Measured values published in patent publication US20260007133A1, “HERBICIDAL COMPOSITION COMPRISING AZINE COMPOUNDS” (BASF SE, priority 2022, published 2026).

Columns and labels:
Type in all cases: in vivo
Ipomoea hederacea = assay: Greenhouse pre-emergence (PRE) herbicidal test on IPOHE; conditions: Ipomoea hederacea, pre-emergence
From the text: (§1) The culture containers used were plastic pots containing loamy sand with approximately 3.0% of humus as substrate. The seeds of the test plants were sown separately for each species.
(§2) For the pre-emergence treatment, the active compounds, suspended or emulsified in water, were applied directly after sowing by means of finely distributing nozzles. The containers were irrigated gently to promote germination and growth and subsequently covered with transparent plastic hoods until the plants had rooted. This cover caused uniform germination of the test plants unless this was adversely affected by the active compounds.
(§3) Depending on the species, the plants were kept at 10-25° C. and 20-35° C., respectively.
(§4) The test period extended over 2 to 4 weeks. During this time, the plants were tended and their response to the individual treatments was evaluated.
(§5) Evaluation was carried out using a scale from 0 to 100. 100 means no emergence of the plants, or complete destruction of at least the above-ground parts, and 0 means no damage or normal course of growth. A good herbicidal activity is given at values of at least 70, and very good herbicidal activity is given at values of at least 85.
(§6) If not stated differently, the respective components A and B, and if appropriate, C were formulated as a 5% by weight strength emulsion concentrate and, with addition of the amount of solvent system, introduced into the spray liquor used for applying the active compound.
(§7) As indicated application was either post emergent (POST) at the respective growth stage (GS) of the weed (BBCH code), or pre-emergent (PRE).
(§8) Assessment was 20 days after treatment (DAT).

Abutilon theophrasti [1] = assay: Greenhouse post-emergence (POST) herbicidal test on ABUTH; conditions: Abutilon theophrasti, post-emergence, 480 h, POST, ABUTH, 20 DAT
Method in brief: (§9)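 Greenhouse weeds, raised in pots of humus-containing loamy sand, receive a water-based spray of the actives once 3 to 15 cm tall. Damage is rated visually from 0 (none) to 100 (above-ground parts destroyed) 20 days after treatment.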

Geranium pusillum [2] = assay: Greenhouse post-emergence (POST) herbicidal test on GERPU; conditions: Geranium pusillum, post-emergence, 480 h, POST, GERPU, 20 DAT
Method in brief: as §9

Amaranthus retroflexus = assay: Greenhouse post-emergence (POST) herbicidal test on AMARE; conditions: Amaranthus retroflexus, post-emergence, 480 h, POST, 20 DAT
Method in brief: as §9

Euphorbia heterophylla [3] = assay: Greenhouse pre-emergence (PRE) herbicidal test on EPHHL; conditions: Euphorbia heterophylla, pre-emergence
Method in brief: (§10)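 Visual 0–100 rating at 20 days after treatment; 0 = normal growth, 100 = no emergence or complete kill of shoots. Pre-emergent application to seeded pots of loamy sand (~3.0% humus), species-dependent temperature 10-25° C or 20-35° C.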

Commelina benghalensis [4] = assay: Greenhouse pre-emergence (PRE) herbicidal test on COMBE; conditions: Commelina benghalensis, pre-emergence
Method in brief: as §10

Geranium pusillum [5] = assay: Greenhouse pre-emergence (PRE) herbicidal test on GERPU; conditions: for % activity: GERPU
From the text: as §1, §2, §3, §4, §5, §6, §7, §8

Alopecurus myosuroides = assay: Greenhouse pre-emergence (PRE) herbicidal test on ALOMY
Method in brief: as §10

Abutilon theophrasti [6] = assay: Greenhouse pre-emergence (PRE) herbicidal test on ABUTH
Method in brief: as §10

Avena fatua = assay: Greenhouse pre-emergence (PRE) herbicidal test on AVEFA
From the text: as §1, §2, §3, §4, §5, §6, §7, §8

Galium aparine = assay: Greenhouse pre-emergence (PRE) herbicidal test on GALAP; conditions: Galium aparine, pre-emergence; GALAP PRE, use rate 1200 gai/ha
From the text: as §1, §2, §3, §4, §5, §6, §7, §8

Lolium multiflorum = assay: Greenhouse pre-emergence (PRE) herbicidal test on LOLMU; conditions: Lolium multiflorum, pre-emergence, LOLMU PRE
Method in brief: as §10

Echinochloa crus-galli [7] = assay: Greenhouse post-emergence (POST) herbicidal test on ECHCG; conditions: Echinochloa crus-galli, post-emergence, 480 h, POST, ECHCG, use rate 100 gai/ha, 20 DAT; read-out: % activity
Method in brief: as §9

Digitaria sanguinalis = assay: Greenhouse post-emergence (POST) herbicidal test on DIGSA; conditions: Digitaria sanguinalis, post-emergence, 480 h, POST, DIGSA, use rate 100 gai/ha, 20 DAT
Method in brief: as §9

Commelina benghalensis [8] = assay: Greenhouse post-emergence (POST) herbicidal test on COMBE; conditions: 480 h, 20 DAT
Protocol: as §1
(§11) For the post-emergence treatment, the test plants were grown to a plant height of from 3 to 15 cm, depending on the plant habit, and only then treated with the active compounds which had been suspended or emulsified in water. To this end, the test plants were either sown directly, and grown in the same containers, or they were first grown separately as seedlings and transplanted into the test containers a few days prior to treatment.
as §3, §4, §5, §6, §7, §8

Brachiaria decumbens = assay: Greenhouse pre-emergence (PRE) herbicidal test on BRADC; conditions: Urochloa decumbens, BRADC PRE, use rate 400 gai/ha
From the text: as §1, §2, §3, §4, §5, §6, §7, §8

Echinochloa crus-galli [9] = assay: Greenhouse pre-emergence (PRE) herbicidal test on ECHCG; conditions: PRE; for % activity: 10 DAT
Setaria viridis = assay: Greenhouse post-emergence (POST) herbicidal test on SETVI; conditions: 480 h, 20 DAT
Protocol: as §1, §11, §3, §4, §5, §6, §7, §8

Euphorbia heterophylla [10] = assay: Greenhouse post-emergence (POST) herbicidal test on EPHHL; conditions: Euphorbia heterophylla, post-emergence, 480 h, POST, EPHHL, 20 DAT
Method in brief: as §9

AMAPA = assay: Greenhouse pre-emergence (PRE) herbicidal test on AMAPA
Ambrosia artemisiifolia = assay: Greenhouse pre-emergence (PRE) herbicidal test on AMBEL; conditions: PRE, 10 DAT

Cc1ccccc1CO[C@@H]1C[C@@]2(C(C)C)CC[C@]1(C)O2 (racemic) [Cinmethylin, cinmethylin]
inhibition at 25 g/ha (Ipomoea hederacea; 480 h, PRE, IPOHE, use rate 25 gai/ha, 20 DAT): 0%
inhibition at 50 g/ha (Ipomoea hederacea; 480 h, PRE, IPOHE, use rate 50 gai/ha, 20 DAT): 0%
inhibition at 50 g/ha (Abutilon theophrasti [1]; use rate 50 gai/ha): 0%
inhibition at 100 g/ha (Abutilon theophrasti [1]; use rate 100 gai/ha): 0%
inhibition at 25 g/ha (Geranium pusillum [2]; use rate 25 gai/ha): 10%
inhibition at 25 g/ha (Amaranthus retroflexus; AMARE, use rate 25 gai/ha): 0%
inhibition at 100 g/ha (Amaranthus retroflexus; AMARE, use rate 100 gai/ha, read-out: % activity): 30%
inhibition at 25 g/ha (Euphorbia heterophylla [3]; 480 h, PRE, EPHHL, use rate 25 gai/ha, 20 DAT): 0%
inhibition at 50 g/ha (Euphorbia heterophylla [3]; 480 h, PRE, EPHHL, use rate 50 gai/ha, 20 DAT): 0%

Nc1c([N+](=O)[O-])ccc(Oc2ccccc2)c1Cl [Aclonifen, aclonifen]
inhibition at 1200 g/ha (Commelina benghalensis [4]; COMBE PRE, use rate 1200 gai/ha): 85%
inhibition at 300 g/ha (Geranium pusillum [5]; Geranium pusillum, pre-emergence, GERPU PRE, use rate 300 gai/ha): 30%
inhibition at 1200 g/ha (Geranium pusillum [5]; Geranium pusillum, pre-emergence, GERPU PRE, use rate 1200 gai/ha): 65%
inhibition at 300 g/ha (Alopecurus myosuroides; Alopecurus myosuroides, pre-emergence, ALOMY PRE, use rate 300 gai/ha): 0%
inhibition at 1200 g/ha (Alopecurus myosuroides; Alopecurus myosuroides, pre-emergence, ALOMY PRE, use rate 1200 gai/ha): 50%
inhibition at 1200 g/ha (Abutilon theophrasti [6]; Abutilon theophrasti, pre-emergence, ABUTH PRE, use rate 1200 gai/ha): 35%
inhibition at 1200 g/ha (Ipomoea hederacea; IPOHE PRE, use rate 1200 gai/ha): 0%
inhibition at 300 g/ha (Avena fatua; use rate 300 gai/ha): 0%
inhibition at 1200 g/ha (Avena fatua; use rate 1200 gai/ha): 0%
inhibition at 300 g/ha (Euphorbia heterophylla [3]; EPHHL PRE, use rate 300 gai/ha): 20%
inhibition at 1200 g/ha (Euphorbia heterophylla [3]; EPHHL PRE, use rate 1200 gai/ha): 50%
inhibition at 1200 g/ha (Galium aparine): 45%
inhibition at 300 g/ha (Lolium multiflorum; use rate 300 gai/ha): 10%

COc1cc(OC)nc(Oc2cccc(Oc3nc(OC)cc(OC)n3)c2C(=O)O)n1 [Bispyribac-Sodium, bispyribac-sodium]
inhibition at 15 g/ha (Commelina benghalensis [4]; 480 h, PRE, use rate 15 gai/ha, 20 DAT): 80%
inhibition at […] (Geranium pusillum [5]; Geranium pusillum, pre-emergence, 480 h, PRE, use rate 7.5 gai/ha, 20 DAT): 75%
inhibition at […] (Abutilon theophrasti [6]; Abutilon theophrasti, pre-emergence, 480 h, PRE, use rate 7.5 gai/ha, 20 DAT, read-out: % activity): 5%
inhibition at 15 g/ha (Abutilon theophrasti [6]; Abutilon theophrasti, pre-emergence, 480 h, PRE, use rate 15 gai/ha, 20 DAT, read-out: % activity): 45%

O=C(Nc1ccc(F)cc1F)c1cccnc1Oc1cccc(C(F)(F)F)c1 [Diflufenican, diflufenican]
inhibition at 100 g/ha (Echinochloa crus-galli [7]): 40%
inhibition at 100 g/ha (Digitaria sanguinalis): 35%
inhibition at 50 g/ha (Geranium pusillum [2]; use rate 50 gai/ha): 25%
inhibition at 50 g/ha (Commelina benghalensis [8]; use rate 50 gai/ha): 25%
inhibition at 100 g/ha (Commelina benghalensis [8]; use rate 100 gai/ha): 20%

CCC(C)(CC)c1cc(NC(=O)c2c(OC)cccc2OC)on1 [Isoxaben, isoxaben]
inhibition at 400 g/ha (Brachiaria decumbens): 0%
inhibition at 100 g/ha (Geranium pusillum [5]; Geranium pusillum, pre-emergence, GERPU PRE, use rate 100 gai/ha): 15%
inhibition at 400 g/ha (Alopecurus myosuroides; Alopecurus myosuroides, pre-emergence, ALOMY PRE, use rate 400 gai/ha): 15%
inhibition at 100 g/ha (Avena fatua; use rate 100 gai/ha): 0%
inhibition at 400 g/ha (Avena fatua; use rate 400 gai/ha): 0%
inhibition at 100 g/ha (Lolium multiflorum; use rate 100 gai/ha): 0%
inhibition at 400 g/ha (Lolium multiflorum; use rate 400 gai/ha): 0%

O=C(Nc1ccc(F)cc1)c1cccc(Oc2cccc(C(F)(F)F)c2)n1 [Picolinafen, picolinafen]
% activity (Geranium pusillum [5]; PRE, use rate 50 gai/ha, 20 DAT): 15%
% activity (Geranium pusillum [5]; PRE, use rate 100 gai/ha, 20 DAT): 40%
% activity (Alopecurus myosuroides; PRE, ALOMY, use rate 50 gai/ha, 20 DAT): 25%

Cn1nc(C(F)(F)F)c(CS(=O)(=O)C2=NOC(C)(C)C2)c1OC(F)F [Pyroxasulfone, pyroxasulfone]
inhibition at 4 g/ha (Echinochloa crus-galli [9]; Echinochloa crus-galli, pre-emergence, 480 h, ECHCG, use rate 4 gai/ha, 20 DAT): 80%
inhibition at 8 g/ha (Echinochloa crus-galli [9]; Echinochloa crus-galli, pre-emergence, 480 h, ECHCG, use rate 8 gai/ha, 20 DAT, read-out: % activity): 80%
inhibition at 4 g/ha (Abutilon theophrasti [6]; Abutilon theophrasti, pre-emergence, 480 h, PRE, ABUTH, use rate 4 gai/ha, 20 DAT): 0%
inhibition at 8 g/ha (Abutilon theophrasti [6]; Abutilon theophrasti, pre-emergence, 480 h, PRE, ABUTH, use rate 8 gai/ha, 20 DAT, read-out: % activity): 0%
inhibition at 16 g/ha (Abutilon theophrasti [6]; Abutilon theophrasti, pre-emergence, 480 h, PRE, ABUTH, use rate 16 gai/ha, 20 DAT): 10%
inhibition at 4 g/ha (Setaria viridis; use rate 4 gai/ha): 30%
inhibition at 8 g/ha (Setaria viridis; use rate 8 gai/ha): 40%
inhibition at 16 g/ha (Setaria viridis; use rate 16 gai/ha): 80%
inhibition at 16 g/ha (Ipomoea hederacea; 480 h, PRE, IPOHE, use rate 16 gai/ha, 20 DAT): 0%
inhibition at 4 g/ha (Euphorbia heterophylla [3]; 480 h, PRE, EPHHL, use rate 4 gai/ha, 20 DAT): 25%
inhibition at 8 g/ha (Euphorbia heterophylla [3]; 480 h, PRE, EPHHL, use rate 8 gai/ha, 20 DAT, read-out: % activity): 20%
inhibition at 16 g/ha (Euphorbia heterophylla [3]; 480 h, PRE, EPHHL, use rate 16 gai/ha, 20 DAT): 25%
inhibition at 8 g/ha (Euphorbia heterophylla [10]; use rate 8 gai/ha, read-out: % activity): 10%
inhibition at 16 g/ha (Euphorbia heterophylla [10]; use rate 16 gai/ha): 25%
inhibition at 16 g/ha (Commelina benghalensis [8]; use rate 16 gai/ha): 45%

O=C(O)c1c(Cl)ccc2cc(Cl)cnc12 [Quinclorac, quinclorac]
inhibition at 62.5 g/ha (AMAPA; pre-emergence, 480 h, use rate 62.5 gai/ha, 20 DAT): 60%
inhibition at 125 g/ha (AMAPA; pre-emergence, 480 h, use rate 125 gai/ha, 20 DAT): 65%
inhibition at 250 g/ha (AMAPA; pre-emergence, 480 h, use rate 250 gai/ha, 20 DAT): 65%
inhibition at 500 g/ha (AMAPA; pre-emergence, 480 h, use rate 500 gai/ha, 20 DAT): 70%
inhibition at 500 g/ha (Commelina benghalensis [4]; 480 h, PRE, use rate 500 gai/ha, 20 DAT): 65%
inhibition at 125 g/ha (Amaranthus retroflexus; use rate 125 gai/ha): 50%

icafolin
% activity (Ambrosia artemisiifolia; use rate 25 gai/ha): 10%
% activity (Ambrosia artemisiifolia; use rate 50 gai/ha): 15%
% activity (AMAPA; use rate 25 gai/ha, 10 DAT): 10%
% activity (Echinochloa crus-galli [9]; use rate 12.5 gai/ha): 25%
% activity (Echinochloa crus-galli [9]; use rate 50 gai/ha): 30%
% activity (Abutilon theophrasti [6]; PRE, use rate 12.5 gai/ha, 10 DAT): 20%
